Data taken from paper PMC8995034 (Science Translational Medicine, 2022).
“And” between values parts separate entries of the source, which are not always exact repeats. Identical values can stand only once. Like-named read-outs stand apart in the source and are kept apart here.

What was measured:
SARS-CoV-2 nLUC = assay: microbe, parasite or virus in culture; type: cell-based; conditions: for inhibition at 0.00152 µM: drug 0.00152 µM; for inhibition at 0.00457 µM: drug 0.00457 µM; for inhibition at 0.01372 µM: drug 0.01372 µM; for inhibition at 0.04115 µM: drug 0.04115 µM; for inhibition at 0.37037 µM: drug 0.37037 µM; for inhibition at 3.33333 µM: drug 3.33333 µM; for Relative Light Units (RLU) (FigS1A): replicate wells
SARS-CoV-2 fLUC = assay: microbe, parasite or virus in culture; type: cell-based; conditions: for EC50: Severe acute respiratory syndrome coronavirus 2, NHBE, 24 h, read-out: EC50, inhibition of SARS-CoV-2 replication in NHBE cultures; for % Inhibition (Fig1F): duplicate values; for Relative Light Units (RLU) (FigS1C): duplicates
MERS-CoV = assay: microbe, parasite or virus in culture; type: cell-based; conditions: Middle East respiratory syndrome-related coronavirus, Calu-3 2B4, read-out: EC50 against MERS-CoV
in vivo = conditions: BALB/c, mouse, po, 20 mg/kg
in vitro = conditions: human, % Cytotoxicity (Fig1E)
SARS-CoV-2 = type: cell-based
[1] = test system: alpha, beta, and gamma SARS-CoV-2 VOCs; conditions: cited from earlier work
[2] = African green monkeys; cited from earlier work
[3] = in vivo; cited from earlier work
[4] = Severe acute respiratory syndrome coronavirus 2, read-out: % Inhibition (Fig1D)
[5] = Severe acute respiratory syndrome coronavirus 2, drug 10 µM, read-out: % Inhibition (Fig1D)
[6] = Severe acute respiratory syndrome coronavirus 2, read-out: Average EC50 (nM) A549-hACE2
[7] = Severe acute respiratory syndrome coronavirus 2, read-out: average half-maximum effective concentration (EC50), SARS-CoV-2 nLUC replication
[8] = concentration 0.222222 (unit not given)
[9] = concentration 0.666667 (unit not given)
[10] = concentration 2 (unit not given)

Compound: N#C[C@@]1(c2ccc3c(N)ncnn23)O[C@H](CO)[C@@H](O)[C@H]1O [GS-441524, reference compound]
- inhibition at 0.00152 µM (SARS-CoV-2 nLUC; [4]): 5.76%
- inhibition at 0.00457 µM (SARS-CoV-2 nLUC; [4]): 7.88%
- inhibition at 0.01372 µM (SARS-CoV-2 nLUC; [4]): 0.08%
- inhibition at 0.04115 µM (SARS-CoV-2 nLUC; [4]): 5.14%
- inhibition at 0.37037 µM (SARS-CoV-2 nLUC; [4]): -4.48%
- inhibition at 3.33333 µM (SARS-CoV-2 nLUC; [4]): 42%
- inhibition at 10 µM (SARS-CoV-2 nLUC; [5]): 99%
- EC50 (SARS-CoV-2 nLUC; [6]): 3370 nM
- EC50 (SARS-CoV-2 nLUC; [7]): 3400 nM
- EC50 (SARS-CoV-2 fLUC): 2450 nM
- % Inhibition (Fig1F) (SARS-CoV-2 fLUC; concentration 0.205761 (unit not given)): 16.6269% and 13.9332%
- % Inhibition (Fig1F) (SARS-CoV-2 fLUC; concentration 0.617284 (unit not given)): 25.1934% and 32.3249%
- % Inhibition (Fig1F) (SARS-CoV-2 fLUC; concentration 1.85185 (unit not given)): 47.2673% and 45.1609%
- % Inhibition (Fig1F) (SARS-CoV-2 fLUC; concentration 5.55556 (unit not given)): 89.9387% and 91.061%
- % Inhibition (Fig1F) (SARS-CoV-2 fLUC; concentration 16.6667 (unit not given)): 99.9354% and 99.9435%
- % Inhibition (Fig1F) (SARS-CoV-2 fLUC; concentration 50 (unit not given)): 99.9909% and 99.9933%
- EC50 (MERS-CoV): 2100 nM
- half-life (in vivo): ~1 h
- cytotoxicity (in vitro; drug 0.00152 µM): 4.91%
- cytotoxicity (in vitro; drug 0.00457 µM): 3.11%
- cytotoxicity (in vitro; drug 0.01372 µM): 6.91%
- cytotoxicity (in vitro; drug 0.04115 µM): 2.96%
- cytotoxicity (in vitro; drug 0.12346 µM): 5.66%
- cytotoxicity (in vitro; drug 0.37037 µM): 7.63%
- cytotoxicity (in vitro; drug 3.33333 µM): 9.21%
- cytotoxicity (in vitro; drug 10 µM): 7.34%

Compound: CC(C)C(=O)OCC1OC(C#N)(c2ccc3c(N)ncnn23)C(OC(=O)C(C)C)C1OC(=O)C(C)C (centres unmarked) [GS-621763]
- inhibition at 0.00152 µM (SARS-CoV-2 nLUC; [4]): -15.2%
- inhibition at 0.00457 µM (SARS-CoV-2 nLUC; [4]): -13.7%
- inhibition at 0.01372 µM (SARS-CoV-2 nLUC; [4]): -12.3%
- inhibition at 0.04115 µM (SARS-CoV-2 nLUC; [4]): -15.7%
- inhibition at 0.12346 µM (SARS-CoV-2 nLUC; Severe acute respiratory syndrome coronavirus 2, drug 0.12346 µM, read-out: % Inhibition (Fig1D)): -15.4%
- inhibition at 0.37037 µM (SARS-CoV-2 nLUC; [4]): -23%
- inhibition at 1.11111 µM (SARS-CoV-2 nLUC; Severe acute respiratory syndrome coronavirus 2, drug 1.11111 µM, read-out: % Inhibition (Fig1D)): -42%
- inhibition at 3.33333 µM (SARS-CoV-2 nLUC; [4]): 94.8%
- inhibition at 10 µM (SARS-CoV-2 nLUC; [5]): 99.3%
- EC50 (SARS-CoV-2 nLUC; [6]): 2800 nM
- EC50 (SARS-CoV-2 nLUC; [7]): 2800 nM
- Relative Light Units (RLU) (FigS1A) (SARS-CoV-2 nLUC; drug 0.004 µM): 1.49E+08 RLU and 1.35E+08 RLU and 1.13E+08 RLU
- Relative Light Units (RLU) (FigS1A) (SARS-CoV-2 nLUC; drug 0.04 µM): 1.45E+08 RLU and 1.37E+08 RLU and 1.12E+08 RLU
- Relative Light Units (RLU) (FigS1A) (SARS-CoV-2 nLUC; drug 0.12 µM): 1.47E+08 RLU and 1.37E+08 RLU and 1.32E+08 RLU
- Relative Light Units (RLU) (FigS1A) (SARS-CoV-2 nLUC; drug 0.37 µM): 1.64E+08 RLU and 1.46E+08 RLU and 1.36E+08 RLU
- Relative Light Units (RLU) (FigS1A) (SARS-CoV-2 nLUC; drug 1.1 µM): 1.69E+08 RLU and 1.76E+08 RLU and 1.62E+08 RLU
- Relative Light Units (RLU) (FigS1A) (SARS-CoV-2 nLUC; drug 3.3 µM): 6190000 RLU and 6040000 RLU and 1.36E+07 RLU
- Relative Light Units (RLU) (FigS1A) (SARS-CoV-2 nLUC; drug 10 µM): 708000 RLU and 801000 RLU and 866000 RLU
- EC50 (SARS-CoV-2 fLUC): 125 nM
- % Inhibition (Fig1F) (SARS-CoV-2 fLUC; [8]): 65.5149% and 78.3611%
- % Inhibition (Fig1F) (SARS-CoV-2 fLUC; [9]): 97.4321% and 98.0439%
- % Inhibition (Fig1F) (SARS-CoV-2 fLUC; [10]): 99.8762% and 99.9108%
- Relative Light Units (RLU) (FigS1C) (SARS-CoV-2 fLUC; drug concentration 0.00823): 7706513 RLU and 5857613 RLU
- Relative Light Units (RLU) (FigS1C) (SARS-CoV-2 fLUC; drug concentration 0.024691): 7329653 RLU and 5548473 RLU
- Relative Light Units (RLU) (FigS1C) (SARS-CoV-2 fLUC; drug concentration 0.074074): 5615903 RLU and 3756783 RLU
- Relative Light Units (RLU) (FigS1C) (SARS-CoV-2 fLUC; drug concentration 0.222222): 2451403 RLU and 1538223 RLU
- Relative Light Units (RLU) (FigS1C) (SARS-CoV-2 fLUC; drug concentration 0.666667): 182543 RLU and 139053 RLU
- Relative Light Units (RLU) (FigS1C) (SARS-CoV-2 fLUC; drug concentration 2): 8803.33 RLU and 6343.33 RLU
- antiviral activity / infectious virus titers in HAE cell cultures (SARS-CoV-2): confirmed the antiviral activity
- antiviral activity / infectious virus titers in HAE cell cultures (SARS-CoV-2; listed as GS621763): reduces viral titers
- EC50 (MERS-CoV): 740 nM
- antiviral activity against alpha, beta, and gamma SARS-CoV-2 VOCs [1]: potently antiviral
- cytotoxicity (in vitro; drug 0.00152 µM): 5.08%
- cytotoxicity (in vitro; drug 0.00457 µM): 2.88%
- cytotoxicity (in vitro; drug 0.01372 µM): 4.34%
- cytotoxicity (in vitro; drug 0.04115 µM): 5.67%
- cytotoxicity (in vitro; drug 0.12346 µM): 6.43%
- cytotoxicity (in vitro; drug 0.37037 µM): 7.02%
- cytotoxicity (in vitro; drug 1.11111 µM): -1.19%
- cytotoxicity (in vitro; drug 3.33333 µM): 1.11%
- cytotoxicity (in vitro; drug 10 µM): 4.64%
- intact ester in plasma [2]: no or very minimal intact ester observed in plasma
- intact ester in plasma [3]: no or very minimal intact ester observed in plasma

Compound: CC(C)C(=O)OC[C@H]1O[C@@H](n2ccc(NO)nc2=O)[C@H](O)[C@@H]1O [MPV, molnupiravir, reference compound]
- NHC plasma exposures, dose proportionality (MPV 30 mg/kg or 100 mg/kg oral, BID): dose proportional increases in NHC plasma exposures

Compound: O=c1nc(NO)ccn1[C@@H]1O[C@H](CO)[C@@H](O)[C@H]1O [NHC]
- Plasma NHC, FigS5 (Group 1, time 12.5, individual mice, oral MPV): 48.2 μM and 56.9 μM (2×) and 55.4 μM

Compound: CCC(CC)COC(=O)C(C)NP(=O)(OCC1OC(C#N)(c2ccc3c(N)ncnn23)C(O)C1O)Oc1ccccc1 (centres unmarked) [RDV (GS-5734)]
- % Inhibition (Fig1F) (SARS-CoV-2 fLUC; concentration 0.024691 (unit not given)): 24.385% and 40.4776%
- % Inhibition (Fig1F) (SARS-CoV-2 fLUC; concentration 0.074074 (unit not given)): 79.3894% and 81.2356%
- % Inhibition (Fig1F) (SARS-CoV-2 fLUC; [8]): 99.4779% and 99.6549%
- % Inhibition (Fig1F) (SARS-CoV-2 fLUC; [9]): 99.9727% and 99.9783%
- % Inhibition (Fig1F) (SARS-CoV-2 fLUC; [10]): 99.9953% and 99.9938%

Compound: CCC(CC)COC(=O)[C@H](C)N[P@](=O)(OC[C@H]1O[C@@](C#N)(c2ccc3c(N)ncnn23)[C@H](O)[C@@H]1O)Oc1ccccc1 [RDV, remdesivir, reference compound]
- EC50 (SARS-CoV-2 nLUC; [6]): 294 nM
- EC50 (SARS-CoV-2 nLUC; [7]): 290 nM
- EC50 (SARS-CoV-2 fLUC): 37.1 nM
- EC50 (MERS-CoV): 160 nM
